In ChEMBL document CHEMBL5244211, “Current anti-diabetic agents and their molecular targets: A review” (Eur J Med Chem, 2018):
pEC50: −log10 of the molar value.

How the values were obtained:
[1] = target: Free fatty acid receptor 1 (Rattus norvegicus) (UniProt Q8K3T4); experiment: In vivo agonist activity at FFAR1 in iv dosed streptozotocin (STZ)-induced Wistar rat model assessed as reduction in blood glucose AUC and measured upto 120 mins by OGTT analysis; assay type: functional, organism-based
Sequence of Free fatty acid receptor 1 (Rattus norvegicus) (Q8K3T4 whole entry): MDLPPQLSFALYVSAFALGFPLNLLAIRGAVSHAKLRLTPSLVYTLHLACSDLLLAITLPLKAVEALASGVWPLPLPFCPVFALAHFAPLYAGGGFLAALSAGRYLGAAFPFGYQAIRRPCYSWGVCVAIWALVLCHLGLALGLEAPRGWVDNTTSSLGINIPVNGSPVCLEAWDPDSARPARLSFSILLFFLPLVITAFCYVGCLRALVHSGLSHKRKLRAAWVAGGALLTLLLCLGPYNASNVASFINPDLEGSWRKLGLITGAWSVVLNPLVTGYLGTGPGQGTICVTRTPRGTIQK

[2] = Clearance in Wistar rat at 1 mg/kg,iv; assay type: ADME, organism-based; details: in vivo
[3] = Oral bioavailability in Wistar rat at 3 mg/kg; assay type: ADME, organism-based; details: in vivo
[4] = target: Free fatty acid receptor 1 (Rattus norvegicus) (UniProt Q8K3T4); experiment: In vivo agonist activity at FFAR1 in streptozotocin (STZ)-induced Wistar rat assessed as reduction in blood glucose AUC at 1 mg/kg,iv and measured upto 120 mins by OGTT analysis; assay type: functional, organism-based; parameters: scale not given: the % may be the effect or the level left
[5] = target: T1, Free fatty acid receptor 1 (Homo sapiens, UniProt O14842); experiment: Agonist activity at FFAR1 (unknown origin) incubated for 16 hrs by Promoter-luciferase assay
T1 sequence (O14842 whole entry): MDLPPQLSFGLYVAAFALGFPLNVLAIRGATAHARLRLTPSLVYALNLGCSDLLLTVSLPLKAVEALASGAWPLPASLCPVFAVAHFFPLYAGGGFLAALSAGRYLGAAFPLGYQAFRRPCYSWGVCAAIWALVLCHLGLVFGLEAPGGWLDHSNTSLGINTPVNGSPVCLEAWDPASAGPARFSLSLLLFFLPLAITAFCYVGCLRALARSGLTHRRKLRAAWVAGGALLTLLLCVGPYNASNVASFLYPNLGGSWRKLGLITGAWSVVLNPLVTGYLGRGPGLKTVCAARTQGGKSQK

[6] = target: T1, Free fatty acid receptor 1; experiment: Agonist activity at human GPR40 expressed in HEK293 cells incubated for 1 hrs by calcium flux assay; assay type: cell-based

In the case of CC#CC(CC(=O)O)c1ccc(OCc2cccc(CN3CCc4oc(C5CC5)nc4C3)c2)cc1 (stereo unspecified), the ED50 [1] was 0.09 mg/kg, the clearance [2] was 0.0162 L/h/kg and the bioavailability [3] was 45%. It also gave an Activity [4] of 46% and a pEC50 [5] of 7.30.

COc1ccc(F)c(-c2ncc(COc3ccc([C@@H](CC(=O)O)C4CC4)cc3)nc2OCCC(F)(F)F)c1 gave a pEC50 [6] of 8.22.
